Measured values: patent publication US10322995B2, “Substituted cyano cycloalkyl penta-2,4-dienes, cyano cycloalkyl pent-2-en-4-ynes, cyano heterocyclyl penta-2,4-dienes and cyano heterocyclyl pent-2-en-4-ynes as active substances against abiotic plant stress” (BAYER CROPSCIENCE AKTIENGESELLSCHAFT, priority 2014, dated 2019)

Legend:
[1] = molecular target: T1, phosphatase ABI1 via the co-regulator RCAR11/PYR1 (Arabidopsis thaliana, UniProt O49686+P49597); assay: In vitro assay: inhibition of the phosphatase ABI1 via the co-regulator RCAR11/PYR1, MUP dephosphorylation, fluorescence; format: biochemical; settings: concentration of 5 mM of the substance in a solution of DMSO and water; MUP dephosphorylation, fluorescence 460 nm
T1 sequence (O49686 1-191): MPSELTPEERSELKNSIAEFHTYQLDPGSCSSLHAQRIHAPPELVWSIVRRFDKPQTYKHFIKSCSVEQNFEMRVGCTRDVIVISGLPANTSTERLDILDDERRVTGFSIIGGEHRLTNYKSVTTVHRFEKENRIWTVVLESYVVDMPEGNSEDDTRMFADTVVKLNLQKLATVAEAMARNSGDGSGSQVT
T1 sequence (P49597 1-434): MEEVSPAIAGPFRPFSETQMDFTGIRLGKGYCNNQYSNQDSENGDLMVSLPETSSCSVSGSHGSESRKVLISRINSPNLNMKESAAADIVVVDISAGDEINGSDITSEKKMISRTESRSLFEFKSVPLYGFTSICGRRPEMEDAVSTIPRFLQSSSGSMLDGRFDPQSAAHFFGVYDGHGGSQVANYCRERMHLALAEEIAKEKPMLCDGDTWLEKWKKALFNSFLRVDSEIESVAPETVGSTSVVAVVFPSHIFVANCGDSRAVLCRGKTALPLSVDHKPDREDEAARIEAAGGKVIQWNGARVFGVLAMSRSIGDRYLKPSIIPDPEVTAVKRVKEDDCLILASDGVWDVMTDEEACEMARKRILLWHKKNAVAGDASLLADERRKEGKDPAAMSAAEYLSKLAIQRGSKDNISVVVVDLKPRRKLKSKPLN
Excerpt: Effects of the phytohormone abscisic acid (ABA) on the behaviour of plants under abiotic stress and the mechanism of action of ABA are described in the literature (cf. Abrams et al, WO97/23441, Cutler, Park et al. Science, 2009, 324, 1068; Grill et al. Science, 2009, 324, 1064; Tanokura et al. Biophysics, 2011, 7, 123; Schroeder et al. Plant J. 2010, 61, 290). Therefore, it is possible with the aid of a suitable in vitro test system to derive a correlation between the action of ABA and the stress response of a plant under abiotic stress. Under drought stress, plants form the phytohormone abscisic acid (ABA). This binds, along with a co-regulator (Regulatory Component of ABA-Receptor=RCAR according to Grill et al. Science, 2009, 324, 1064 or PYR/PYL according to Cutler et al. Science, 2009, 324, 1068), to a phosphatase (e.g. ABI1, a type 2C protein phosphatase, also abbreviated to PP2C) and inhibits its activity. As a result, a “downstream” kinase (e.g. SnRK2) is no longer dephosphorylated. This kinase, which is thus active, via phosphorylation of transcription factors (e.g. AREB/ABF, vgl. Yoshida et al., Plant J. 2010, 61, 672), switches on a genetic protection programme to increase drought stress tolerance.
The assay described hereinafter utilizes the inhibition of the phosphatase ABI1 via the co-regulator RCAR11/PYR1 aus Arabidopsis thaliana.
For the determination of activity, the dephosphorylation of 4-methylumbelliferyl phosphate (MUP) was measured at 460 nm. The in vitro assay was conducted in Greiner 384-well PS microplates F-well, using two controls: a) dimethyl sulphoxide (DMSO) 0.5% (f.c.) and b) 5 μM (f.c.) abscisic acid (ABA). […] The substance solution thus obtained, if necessary, was stirred with esterase from porcine liver (EC 3.1.1.1) at room temperature for 3 h and centrifuged at 4000 rpm for 30 min. A total volume of 45 μl was introduced into each cavity of the microplate, having the following composition: • 1) 5 μl of substance solution, i.e. a) DMSO 5% or b) abscisic acid solution or c) the corresponding example compound of the general formula (I) dissolved in 5% DMSO. • 2) 20 μl of enzyme buffer mix, composed of a) 40% by vol. of enzyme buffer (10 ml contain equal proportions by volume of 500 mM Tris-HCl pH8, 500 mM NaCl, 3.33 mM MnCl2, 40 mM dithiothreitol (DTT)), b) 4% by vol. of ABI1 dilution (protein stock solution was diluted so as to give, after addition, a final concentration in the assay of 0.15 μg ABI1/well), c) 4% by vol. of RCAR11 dilution (enzyme stock was diluted so as to give, on addition of the dilution to the enzyme buffer mix, a final concentration in the assay of 0.30 μg enzyme/well), d) 5% by vol. of Tween20 (1%), e) 47% by vol. H2O bi-dist. • 3) 20 μl of substrate mix, composed of a) 10% by vol. of 500 mM Tris-HCl pH8, b) 10% by vol. of 500 mM NaCl, c) 10% by vol. of 3.33 mM MnCl2, d) 5% by vol. of 25 mM MUP, 5% by vol. of Tween20 (1%), 60% by vol. of H2O bi-dist.
Enzyme buffer mix and substrate mix were made up 5 minutes prior to the addition and warmed to a temperature of 35° C. On completion of pipetting of all the solutions and on completion of mixing, the plate was incubated at 35° C. for 20 minutes. Finally, a relative fluorescence measurement was made at 35° C. with a BMG Labtech “POLARstar Optima” microplate reader using a 340/10 nm excitation filter and a 460 nm emission filter. The efficacy of the compounds of the general formula (I) is reported in the table which follows using abscisic acid (No. 64) as comparative substance according to the following classification: ++++ (inhibition≥90%), +++ (90%>inhibition≥70%), ++ (70%>inhibition≥50%), +(50%>inhibition≥30%).
Effects of selected compounds of the general formula (I) in the above-described in vitro assay at a concentration of 5 mM of the substance of the general formula (I) in question in a solution of DMSO and water: […]

Brassica napus (BRSNS) = assay: In vivo analyses Part C: drought stress, appearance vs stressed control plants in categories (BRSNS); set-up: key: 0: no positive effect; 10: slight positive effect; 20: clear positive effect; 30: strong positive effect; settings: appearance vs stressed control plants after recovery phase, efficacy range of 3-4 pots
Method: Seeds of monocotyledonous and dicotyledonous crop plants were sown in sandy loam in plastic or wood-fibre pots, covered with soil or sand and cultivated in a greenhouse under good growth conditions. The test plants were treated at the early leaf stage (BBCH10-BBCH13). To assure uniform water supply before commencement of stress, the potted plants were supplied with water by dam irrigation prior to substance application. The inventive compounds were first formulated as wettable powders (WP) or dissolved in a solvent mixture. The further dilution was effected with water supplemented with 0.2% wetting agent (e.g. agrotin). The finished spray liquor was sprayed onto the green parts of the plant at an equivalent water application rate of 600 I/ha. Substance application was followed immediately by stress treatment of the plants. For this purpose, the wood-fibre pots were transferred in plastic inserts in order to prevent them from subsequently drying out too quickly. Drought stress was induced by gradual drying out under the following conditions: “Day”: 14 hours with illumination at 26-30° C. “Night”: 10 hours without illumination at 18-20° C. The duration of the respective stress phases was guided mainly by the condition of the stressed control plants. It was ended (by re-irrigating and transfer to a greenhouse with good growth conditions) as soon as irreversible damage was observed on the stressed control plants. The end of the stress phase was followed by an about 4-7-day recovery phase, during which the plants were once again kept under good growth conditions in a greenhouse. The duration of the recovery phase was guided mainly by when the trial plants had attained a state which enabled visual scoring of potential effects, and was therefore variable. Once this juncture had been reached, the appearance of the plants treated with test substances was recorded in comparison to the stressed control plants by the following categories: [table] For each substance and dosage, 3-4 pots were treated and evaluated. BRSNS=Brassica napus

Structure (SMILES)	ABI1 inhibition [1]	Effect (BRSNS) (Brassica napus (BRSNS); dosage 250 g/ha)	Effect (BRSNS) (Brassica napus (BRSNS); dosage 25 g/ha)
CCC(C=CC(O)(C(C)C)C1(C#N)CC1)=CC(=O)OC (racemic) [I.2-102]	++++ (inhibition≥90%)	10-20	–
CCCOC(=O)C=C(C=CC(O)(C(C)C)C1(C#N)CC1)CC (racemic) [I.2-507]	++++ (inhibition≥90%)	30	–
CCC(C=CC(O)(C(CC)CC)C1(C#N)CC1)=CC(=O)OC (racemic) [I.2-583]	++++ (inhibition≥90%)	10-30	–
CC/C(C#CC(O)(C1CC1)C1(C#N)CC1)=C/C(=O)OC (centres unmarked) [I.1-618]	++++ (inhibition≥90%)	–	30
COC(=O)C=C(C#CC(O)(c1ccc(C)cc1)C1(C#N)CC1)C(F)(F)F (racemic) [I.1-812]	+++ (90%>inhibition≥70%)	10-20	–
CCCOC(=O)C=C(C#CC(O)(C(CC)CC)C1(C#N)CC1)C(F)(F)F (racemic) [I.1-887]	+++ (90%>inhibition≥70%)	10-20	–
CC/C(C#CC(O)(C1CCCCC1)C1(C#N)CC1)=C/C(=O)OC (centres unmarked) [I.1-678]	++++ (inhibition≥90%)	10-30	–
